Like-named read-outs stand apart in the source and are kept apart here. Where a SMILES comes first, the peptide text is derived from it. Bridges are numbered along the chain shown (N, C = ends). Where no end group is shown, it is not given here.
T1: human endothelin ETA receptor (human, UniProt P25101 21-427)
T1 construct: whole, on cells; Assayed as membrane homogenates (10 ug protein) of transfected CHO cells; also called endothelin receptor A
T1 sequence (looked up): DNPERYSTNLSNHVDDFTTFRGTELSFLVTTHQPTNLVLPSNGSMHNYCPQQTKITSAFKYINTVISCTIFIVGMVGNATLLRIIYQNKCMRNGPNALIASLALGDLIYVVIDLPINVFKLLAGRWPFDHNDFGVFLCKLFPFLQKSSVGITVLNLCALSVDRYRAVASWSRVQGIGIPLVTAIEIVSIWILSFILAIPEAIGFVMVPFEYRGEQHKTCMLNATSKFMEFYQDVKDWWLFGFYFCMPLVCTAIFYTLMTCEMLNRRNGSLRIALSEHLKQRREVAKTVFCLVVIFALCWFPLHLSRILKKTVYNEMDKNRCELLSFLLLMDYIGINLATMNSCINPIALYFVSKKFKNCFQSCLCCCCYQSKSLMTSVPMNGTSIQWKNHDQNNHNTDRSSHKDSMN

T2: human endothelin ETB receptor (human, UniProt P24530 27-442)
T2 construct: whole, on cells; Assayed as membrane homogenates (2.4 ug protein) of transfected CHO cells; also called endothelin receptor B
T2 sequence (looked up): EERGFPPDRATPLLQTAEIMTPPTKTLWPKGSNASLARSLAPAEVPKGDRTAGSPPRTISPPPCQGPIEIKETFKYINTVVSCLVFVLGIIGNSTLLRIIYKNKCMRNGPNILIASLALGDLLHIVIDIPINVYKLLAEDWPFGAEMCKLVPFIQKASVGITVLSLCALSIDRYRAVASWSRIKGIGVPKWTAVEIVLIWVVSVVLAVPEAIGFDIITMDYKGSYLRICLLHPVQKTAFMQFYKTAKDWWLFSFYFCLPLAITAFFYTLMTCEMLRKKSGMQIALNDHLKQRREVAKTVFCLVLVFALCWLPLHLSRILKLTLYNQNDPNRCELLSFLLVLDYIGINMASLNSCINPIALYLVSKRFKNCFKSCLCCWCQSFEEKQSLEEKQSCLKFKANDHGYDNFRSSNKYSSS

B1: EDN3 97-140 (peptide)
peptide: CTCFTYKDKECVYYCHLDIIWINTPEQTVPYGLSNYRESLRGKR-NH2
modifications: not fully specified; cysteine pairing not given here
notes: also called long endothelin-3; 44 amino acid, C-terminally amidated endothelin-like peptide

Assays:
GLUTag cells = conditions: for GLP-1 secretion from GLUTag cells, result in words: endothelin-3 at highest concentration 10 μM
rat perfused colon = assay: GLP-1 secretion from rat perfused colon ex vivo; conditions: forskolin (1 μM), rat perfused colon, vs baseline, p=0.0398
Description: Ex vivo rat colon vascular perfusion experiments were performed as previously described (Plaisancié, 1995). Male Sprague-Dawley rats (300 g) were purchased from Charles River and fed ad libitum with Purina Lab Chow #5001 (WF Fisher and Son Inc Sommerville, N.J.). Rats were decapitated and the abdomen was opened with a midline incision. […] The arterial vascular perfusion started immediately with an oxygenated Krebs-Henseleit buffer containing-solution at a rate of 2 mL/minute [solution: Krebs-Henseleit buffer (25.0 mM NaHCO3; 118 mM NaCl; 4.7 mM KCl; 1.2 mM MgSO4; 1.2 mM KH2PO4; 2.5 mM CaCl2) with 3% BSA, 5 mM glucose, MEM essential and nonessential amino acids (pH 7.4)]. The colonal lumen was perfused at the rate of 0.5 mL/minute. The remaining colon and small intestine were removed after the ligation of their respective supplying vessels. After the colon preparation was transferred to a 37° C. tissue bath, the portal effluent was collected as 5 minute fractions. The fraction aliquots were frozen at −20° C. for subsequent determinations of GLP-1. EDN3 97-140 was dissolved at 200 nM in vascular perfusion solution and perfused into the artery after a 30 minute baseline collection. […] The GLP-1 detection assay was carried out by using a commercial kit for active GLP-1 (7-36) amide according to the manufacturer's instructions (Millipore). GLP-1 release data was normalized to % baseline using the average of fractions collected prior to treatment as the baseline value and the peak data following each treatment. The average data across 3 independent experiments was reported comparing EDN3 97-140 versus control (baseline) and forskolin versus control (baseline). Statistical analysis was performed by one sided Satterwaite's test due to unequal variance and the Holm test was applied to account for multiple comparisons.

[1] = system: isolated rat aortic rings; conditions: read-out: EC50, concentration-dependent contractions, n=4-6
Description: The thoracic aorta with endothelium intact was isolated from male Wistar rats (300-500 g), cut into 3 mm rings, and placed in tissue baths with oxygenated Krebs-Henseleit buffer containing (in mM): KCl (4.7), CaCl2-2H2O (2.5), MgSO4-7H2O (1.2), KH2PO4 (1.2), D-glucose (10), NaHCO3 (25), NaCl (118). Tissues were placed under a 3 g basal tension and allowed to equilibrate for 1 hour at 37° C.

[2] = biological target: T1, human endothelin ETA receptor; assay: radioligand competition ([125I]endothelin-1) on membranes of CHO cells transfected with human ETA
Description: (§1) To evaluate the affinity of EDN3 97-140 for the agonist site of the human endothelin ETA receptor, radioligand binding with CHO cells transfected with the ETA receptor was used. […] Following incubation, the samples are filtered rapidly under vacuum through glass fiber filters (GF/B, Packard) presoaked with 0.1% BSA and rinsed several times with an ice-cold buffer containing 50 mM Tris-HCl and 150 mM NaCl using a 96-sample cell harvester (Unifilter, Packard). Filters were dried and then counted for radioactivity in a scintillation counter (Topcount, Packard) using a scintillation cocktail (Microscint 0, Packard).

[3] = biological target: T2, human endothelin ETB receptor; assay: radioligand competition ([125I]endothelin-1) on membranes of CHO cells transfected with human ETB
Description: as §1, with “ETB receptor in transfected CHO cells,” for “ETA receptor,”, “binding” for “binding with CHO cells transfected with the ETA receptor”, “were” for “are”, “The filters” for “Filters”, “dried” for “dried and”

Row | Molecule | EC50 (GLUTag cells) [nM] | other results
1 | FTYKDKESVYY-NH2 [EDN3 100-110] | > 10000 | 
2 | C=C[C@@]1(C)CC(=O)[C@]2(O)[C@@]3(C)[C@@H](O)CCC(C)(C)[C@@H]3[C@H](O)[C@H](OC(C)=O)[C@@]2(C)O1 [forskolin, reference compound] |  | stimulation of GLP-1 release, positive control (rat perfused colon): 1717±350%
3 | CTCFTYKDKECVYYCHLDIIHINTPEQTVPYGLSNYRESLRGKR-NH2 (disulfide 1-15, 3-11 (inferred)) [EDN3 97-140 W117H] | > 1000 | 
4 | CTCFTYKDKECVYYCHLDIIFINTPEQTVPYGLSNYRESLRGKR-NH2 (disulfide 1-15, 3-11 (inferred)) [EDN3 97-140 W117F] | 731 | GLP-1 secretion from GLUTag cells, result in words (GLUTag cells): does not cause a loss of GLP-1 secretagogue function
5 | CC[C@H](C)[C@H](NC(=O)[C@H](CC(=O)O)NC(=O)[C@H](CC(C)C)NC(=O)[C@H](Cc1c[nH]cn1)NC(=O)[C@@H]1CSSC[C@H](N)C(=O)N[C@@H]([C@@H](C)O)C(=O)N[C@H]2CSSC[C@H](NC(=O)[C@H](CCC(=O)O)NC(=O)[C@H](CCCCN)NC(=O)[C@H](CC(=O)O)NC(=O)[C@H](CCCCN)NC(=O)[C@H](Cc3ccc(O)cc3)NC(=O)[C@H]([C@@H](C)O)NC(=O)[C@H](Cc3ccccc3)NC2=O)C(=O)N[C@@H](C(C)C)C(=O)N[C@@H](Cc2ccc(O)cc2)C(=O)N[C@@H](Cc2ccc(O)cc2)C(=O)N1)C(=O)N[C@H](C(=O)N[C@@H](Cc1c[nH]c2ccccc12)C(=O)O)[C@@H](C)CC [endothelin-3, reference compound] | > 10000 | GLP-1 secretion from GLUTag cells, result in words (GLUTag cells): no effect; GLP-1 secretion from GLUTag cells, result in words (GLUTag cells; listed as Endothelin-3 (EDN3 97-117)): not sufficient to elicit a GLP-1 release
6 | endothelin-1 [reference compound] |  | EC50 [1]: 2.7 ± 1 nM
7 | YYAHLDIIAINTPEQTVPYGLSNYRESLRGKR-NH2 [EDN3 109-140 C111A W117A] | > 10000 | 
8 | CTAFTYKDKEAVYYCHLDIIWINTPEQTVPYGLSNYRESLRGKR-NH2 (disulfide 1-15) [EDN3 97-140 C99A, C107A] | 1600 | 
9 | TCFTYKDKECVYYCHLDIIWINTPEQTVPYGLSNYRESLRGKR-NH2 (cysteines drawn unpaired) [EDN3 98-140] | > 10000 | GLP-1 secretion from GLUTag cells, result in words (GLUTag cells): do not measurably stimulate GLP-1 secretion
10 | CTCFTYKDKECVYYCHLDIIWINTPEQTVPYGLSNYRESLRGKR-OH (disulfide 1-15, 3-11 (inferred)) [EDN3 97-140 free acid] | 2000 | 
11 | CTCFTYKDKECVYYCHLDIIWINTPEQTVPYGLSNYRESLR-NH2 (disulfide 1-15, 3-11 (inferred)) [EDN3 97-137] | 1720 | GLP-1 secretion from GLUTag cells, result in words (GLUTag cells): partial loss of activity
12 | STSFTYKDKESVYYSHLDIIWINTPEQTVPYGLSNYRESLRGKR-NH2 [EDN3 97-140 C->S mutant] | > 10000 | 
13 | YYSHLDIIWINTPEQTVPYGLSNYRESLRGKR-NH2 [EDN3 109-140 C111S] | > 10000 | 
14 | ATCFTYKDKECVYYAHLDIIWINTPEQTVPYGLSNYRESLRGKR-NH2 (disulfide 3-11) [EDN3 97-140 C97A, C111A] | 2700 | 
15 | CC[C@H](C)[C@H](NC(=O)[C@H](Cc1c[nH]c2ccccc12)NC(=O)[C@@H](NC(=O)[C@@H](NC(=O)[C@H](CC(=O)O)NC(=O)[C@H](CC(C)C)NC(=O)[C@H](Cc1c[nH]cn1)NC(=O)[C@H](CS)NC(=O)[C@H](Cc1ccc(O)cc1)NC(=O)[C@H](Cc1ccc(O)cc1)NC(=O)[C@@H](NC(=O)[C@H](CS)NC(=O)[C@H](CCC(=O)O)NC(=O)[C@H](CCCCN)NC(=O)[C@H](CC(=O)O)NC(=O)[C@H](CCCCN)NC(=O)[C@@H](N)Cc1ccc(O)cc1)C(C)C)[C@@H](C)CC)[C@@H](C)CC)C(=O)N[C@@H](CC(N)=O)C(=O)N[C@H](C(=O)N1CCC[C@H]1C(=O)N[C@@H](CCC(=O)O)C(=O)N[C@@H](CCC(N)=O)C(N)=O)[C@@H](C)O [EDN3 102-123] (H-YKDKECVYYCHLDIIWINTPEQ-NH2; N-terminus assumed) | > 10000 | 
16 | INTPEQTVPYGLSNYRESLRGKR-NH2 [EDN3 118-140] | > 10000 | 
17 | FTYKDKECVYYCHLDIIWINTPEQTVPYGLSNYRESLRGKR-NH2 (cysteines drawn unpaired) [EDN3 100-140] | > 10000 | GLP-1 secretion from GLUTag cells, result in words (GLUTag cells): do not measurably stimulate GLP-1 secretion
18 | B1 |  | binding result [2]: no binding (tested: up to 3 µM); binding result [3]: no binding (tested: up to 3 µM)

— US20130345392A1, “EDN3-LIKE PEPTIDES AND USES THEREOF” (Pfizer Inc, priority 2011, published 2013)
